Measured values taken from patent US20090155387A1, “STABLE PHARMACEUTICAL COMPOSITION COMPRISING BETA-LACTAM ANTIBIOTIC AND ION-CHELATING AGENT” (priority 2006, published 2009).

Experiment: Amounts of β-lactam antibiotic, β-lactamase inhibitor and aminoglycoside antibiotic in solution over time (reverse-phase LC/HPLC)
Format: physicochemical
Method in brief: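 β-Lactam antibiotic and β-lactamase inhibitor quantified by C18 reverse-phase LC with UV-VIS detection; aminoglycoside by reverse-phase HPLC with evaporative light-scattering detection. Peak areas taken relative to an external standard, with each component at each time point given as a percentage of its initial amount.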

## CC1(C)[C@H](C(=O)O)N2C(=O)C[C@H]2S1(=O)=O [Sulbactam sodium]
In Example 4 solution (no EDTA), pH 6.75, room temperature, 0 h
  amount (percentage of initial amount): 101.4%
In Example 4 solution (no EDTA), pH 6.75, room temperature, 1 h
  amount (percentage of initial amount): 101.4%
In Example 4 solution (no EDTA), pH 6.75, room temperature, 2 h
  amount (percentage of initial amount): 101.5%
In Example 4 solution (no EDTA), pH 6.75, room temperature, 4 h
  amount (percentage of initial amount): 109.7%
In Example 4 solution (no EDTA), pH 6.75, room temperature, 6 h
  amount (percentage of initial amount): 103.2%
In Example 5 solution, pH 6.75, room temperature, 0 h
  amount (percentage of initial amount): 101.4%
In Example 5 solution, pH 6.75, room temperature, 1 h
  amount (percentage of initial amount): 101.4%
In Example 5 solution, pH 6.75, room temperature, 2 h
  amount (percentage of initial amount): 101.5%
In Example 5 solution, pH 6.75, room temperature, 4 h
  amount (percentage of initial amount): 109.7%
In Example 5 solution, pH 6.75, room temperature, 6 h
  amount (percentage of initial amount): 103.2%
In Example 6 solution, pH 6.5, room temperature, 0 h
  amount (percentage of initial amount): 99.62%
In Example 6 solution, pH 6.5, room temperature, 1 h
  amount (percentage of initial amount): 100.4%
In Example 6 solution, pH 6.5, room temperature, 2 h
  amount (percentage of initial amount): 100.2%
In Example 6 solution, pH 6.5, room temperature, 4 h
  amount (percentage of initial amount): 100.2%
In Example 7 solution, pH 6.75, room temperature, 0 h
  amount (percentage of initial amount): 96.84%
In Example 7 solution, pH 6.75, room temperature, 1 h
  amount (percentage of initial amount): 94.43%
In Example 7 solution, pH 6.75, room temperature, 2 h
  amount (percentage of initial amount): 93.35%
In Example 7 solution, pH 6.75, room temperature, 4 h
  amount (percentage of initial amount): 93.23%
In Example 7 solution, pH 6.75, room temperature, 6 h
  amount (percentage of initial amount): 92.13%
In Example 7 solution, pH 6.75, room temperature, 8 h
  amount (percentage of initial amount): 93.38%
In Example 12 solution (no aminoglycoside) from freeze-dried powder stored 7 days at 0° C., redissolved, 0 h
  amount (percentage of initial amount): 98.5%
In Example 12 solution (no aminoglycoside) from freeze-dried powder stored 7 days at 0° C., redissolved, 1 h
  amount (percentage of initial amount): 98.7%
In Example 12 solution (no aminoglycoside) from freeze-dried powder stored 7 days at 0° C., redissolved, 2 h
  amount (percentage of initial amount): 98.2%
In Example 12 solution (no aminoglycoside) from freeze-dried powder stored 7 days at 0° C., redissolved, 4 h
  amount (percentage of initial amount): 95.6%
In Example 12 solution (no aminoglycoside) from freeze-dried powder stored 7 days at 0° C., redissolved, 6 h
  amount (percentage of initial amount): 94.0%
In Example 12 solution (no aminoglycoside) from freeze-dried powder stored 7 days at 0° C., redissolved, 8 h
  amount (percentage of initial amount): 96.1%
In Example 14 solution, pH 6.5, room temperature, 0 h
  amount (percentage of initial amount): 92.44%
In Example 14 solution, pH 6.5, room temperature, 1 h
  amount (percentage of initial amount): 91.27%
In Example 14 solution, pH 6.5, room temperature, 2 h
  amount (percentage of initial amount): 90.78%
In Example 14 solution, pH 6.5, room temperature, 4 h
  amount (percentage of initial amount): 88.38%
In Example 14 solution, pH 6.5, room temperature, 6 h
  amount (percentage of initial amount): 86.86%
In Example 15 solution, pH 6.5, room temperature, 0 h
  amount (percentage of initial amount): 99.50%
In Example 15 solution, pH 6.5, room temperature, 1 h
  amount (percentage of initial amount): 96.28%
In Example 15 solution, pH 6.5, room temperature, 2 h
  amount (percentage of initial amount): 102.5%
In Example 15 solution, pH 6.5, room temperature, 4 h
  amount (percentage of initial amount): 95.78%
In Example 15 solution, pH 6.5, room temperature, 6 h
  amount (percentage of initial amount): 70.74%
In Example 17 solution, pH 6.5, room temperature, 0 h
  amount (percentage of initial amount): 114.3%
In Example 17 solution, pH 6.5, room temperature, 1 h
  amount (percentage of initial amount): 95.83%
In Example 17 solution, pH 6.5, room temperature, 2 h
  amount (percentage of initial amount): 93.75%
In Example 17 solution, pH 6.5, room temperature, 4 h
  amount (percentage of initial amount): 93.78%
In Example 17 solution, pH 6.5, room temperature, 6 h
  amount (percentage of initial amount): 95.65%
In Example 17 solution, pH 6.5, room temperature, 8 h
  amount (percentage of initial amount): 101.0%
In Example 18 solution (2.5% fructose), pH 6.5, room temperature, 0 h
  amount (percentage of initial amount): 98.07%
In Example 18 solution (2.5% fructose), pH 6.5, room temperature, 1 h
  amount (percentage of initial amount): 98.13%
In Example 18 solution (2.5% fructose), pH 6.5, room temperature, 2 h
  amount (percentage of initial amount): 72.96%
In Example 18 solution (2.5% fructose), pH 6.5, room temperature, 4 h
  amount (percentage of initial amount): 95.16%
In Example 18 solution (2.5% fructose), pH 6.5, room temperature, 6 h
  amount (percentage of initial amount): 99.65%
In Example 18 solution (2.5% fructose), pH 6.5, room temperature, 8 h
  amount (percentage of initial amount): 104.9%
In Example 19 solution, pH 6.75, room temperature, 0 h
  amount (percentage of initial amount): 108.8%
In Example 19 solution, pH 6.75, room temperature, 1 h
  amount (percentage of initial amount): 109.6%
In Example 19 solution, pH 6.75, room temperature, 2 h
  amount (percentage of initial amount): 111.7%
In Example 19 solution, pH 6.75, room temperature, 4 h
  amount (percentage of initial amount): 115.9%
In Example 19 solution, pH 6.75, room temperature, 6 h
  amount (percentage of initial amount): 120.7%
In Example 19 solution, pH 6.75, room temperature, 8 h
  amount (percentage of initial amount): 125.6%
In Example 20 solution (no EDTA), pH 6.75, room temperature, 0 h
  amount (percentage of initial amount): 105.6%
In Example 20 solution (no EDTA), pH 6.75, room temperature, 1 h
  amount (percentage of initial amount): 112.2%
In Example 20 solution (no EDTA), pH 6.75, room temperature, 2 h
  amount (percentage of initial amount): 112.6%
In Example 20 solution (no EDTA), pH 6.75, room temperature, 4 h
  amount (percentage of initial amount): 118.5%
In Example 20 solution (no EDTA), pH 6.75, room temperature, 6 h
  amount (percentage of initial amount): 123.3%
In Example 20 solution (no EDTA), pH 6.75, room temperature, 8 h
  amount (percentage of initial amount): 127.1%
In Example 22 solution (2.5% fructose), pH 6.0, room temperature, 0 h
  amount (percentage of initial amount): 101.4%
In Example 22 solution (2.5% fructose), pH 6.0, room temperature, 1 h
  amount (percentage of initial amount): 107.6%
In Example 22 solution (2.5% fructose), pH 6.0, room temperature, 2 h
  amount (percentage of initial amount): 101.3%
In Example 22 solution (2.5% fructose), pH 6.0, room temperature, 4 h
  amount (percentage of initial amount): 104.4%
In Example 22 solution (2.5% fructose), pH 6.0, room temperature, 6 h
  amount (percentage of initial amount): 104.4%
In Example 22 solution (2.5% fructose), pH 6.0, room temperature, 8 h
  amount (percentage of initial amount): 91.39%
In Example 24 solution, pH 6.75, room temperature, 0 h
  amount (percentage of initial amount): 90.06%
In Example 24 solution, pH 6.75, room temperature, 1 h
  amount (percentage of initial amount): 94.26%
In Example 24 solution, pH 6.75, room temperature, 2 h
  amount (percentage of initial amount): 100.5%
In Example 24 solution, pH 6.75, room temperature, 4 h
  amount (percentage of initial amount): 89.94%
In Example 24 solution, pH 6.75, room temperature, 6 h
  amount (percentage of initial amount): 94.26%
In Example 24 solution, pH 6.75, room temperature, 8 h
  amount (percentage of initial amount): 105.0%
In Example 25 solution, pH 6.75, room temperature, 0 h
  amount (percentage of initial amount): 99.32%
In Example 25 solution, pH 6.75, room temperature, 1 h
  amount (percentage of initial amount): 107.5%
In Example 25 solution, pH 6.75, room temperature, 2 h
  amount (percentage of initial amount): 97.91%
In Example 25 solution, pH 6.75, room temperature, 4 h
  amount (percentage of initial amount): 83.79%
In Example 25 solution, pH 6.75, room temperature, 6 h
  amount (percentage of initial amount): 94.52%
In Example 25 solution, pH 6.75, room temperature, 8 h
  amount (percentage of initial amount): 105.5%
